Experimental data taken from the CheMixHub viscosity set.
± gives the uncertainty stated by the source.

Assay: xn = mol fraction of the nth substance listed
Conditions: 101 kPa

Nc1ccccc1Cl + CCCCOCCO
303.15 K
Conditions	viscosity [mPa·s]
x1 = 0.1461	3.066 ± 0.78
x1 = 0.2298	3.194 ± 0.81
x1 = 0.3377	3.344 ± 0.85
x1 = 0.4573	3.496 ± 0.89
x1 = 0.563	3.619 ± 0.92
x1 = 0.6667	3.722 ± 0.95
x1 = 0.7494	3.786 ± 0.96
x1 = 0.8351	3.833 ± 0.98
x1 = 0.9459	3.859 ± 0.98

C=O + O
viscosity [mPa·s]
Conditions	x1 = 0.03	x1 = 0.062	x1 = 0.13	x1 = 0.2	x1 = 0.29	x1 = 0.37
293.15 K	1.13 ± 0.03	1.26 ± 0.03	1.54 ± 0.04	1.95 ± 0.05	–	–
303.15 K	0.91 ± 0.02	1.01 ± 0.03	1.25 ± 0.03	1.54 ± 0.04	–	–
313.15 K	0.74 ± 0.02	0.82 ± 0.02	1.01 ± 0.03	1.24 ± 0.03	–	–
323.15 K	0.61 ± 0.02	0.68 ± 0.02	0.83 ± 0.02	1.01 ± 0.03	1.61 ± 0.04	2.11 ± 0.06

Nc1ccccc1Cl + CC(C)(C)O
viscosity [mPa·s]
Conditions	x1 = 0.0902	x1 = 0.1802	x1 = 0.3025	x1 = 0.4125	x1 = 0.5089	x1 = 0.6158	x1 = 0.7025	x1 = 0.8054	x1 = 0.9005
303.15 K	3.13 ± 0.68	3.28 ± 0.71	3.44 ± 0.75	3.57 ± 0.78	3.66 ± 0.8	3.73 ± 0.81	3.78 ± 0.82	3.82 ± 0.83	3.84 ± 0.83
308.15 K	2.89 ± 0.63	3.03 ± 0.66	3.16 ± 0.69	3.26 ± 0.71	3.33 ± 0.72	3.39 ± 0.74	3.43 ± 0.75	3.46 ± 0.75	3.46 ± 0.75
313.15 K	2.36 ± 0.51	2.52 ± 0.55	2.68 ± 0.58	2.79 ± 0.61	2.88 ± 0.63	2.98 ± 0.65	3.03 ± 0.66	3.09 ± 0.67	3.11 ± 0.68
318.15 K	1.97 ± 0.43	2.13 ± 0.46	2.3 ± 0.5	2.42 ± 0.53	2.52 ± 0.55	2.62 ± 0.57	2.7 ± 0.59	2.77 ± 0.6	2.8 ± 0.61
